Results published in the supplement of paper PMC13380429.
± gives the standard deviation of the averaged measurements.

How the values were obtained:
Settings in all cases: 72 h
Calu-3 [1] = test: relative viability EC50 (midpoint between 100% and the lowest measured viability); higher = less toxic
HepG2 [2] = test: as above
U2OS [3] = test: as above
Caco-2 [4] = test: as above
Vero E6 [5] = test: as above
Calu-3 [6] = test: cell viability relative to DMSO; higher = less toxic
HepG2 [7] = test: as above
U2OS [8] = test: as above
Caco-2 [9] = test: as above
Vero E6 [10] = test: as above
Calu-3 [11] = test: drug sensitivity score (DSS) for viability; higher = more toxic; extreme values may be limits of the assay
HepG2 [12] = test: as above
U2OS [13] = test: as above
Caco-2 [14] = test: as above
Vero E6 [15] = test: as above

Row | Compound | relative viability EC50 (Calu-3 [1]) [µM] | relative viability EC50 (HepG2 [2]) [µM] | relative viability EC50 (U2OS [3]) [µM] | relative viability EC50 (Caco-2 [4]) [µM] | relative viability EC50 (Vero E6 [5]) [µM] | cell viability (Calu-3 [6]; 1 nM) [%] | cell viability (Calu-3 [6]; 10 nM) [%] | cell viability (Calu-3 [6]; 100 nM) [%] | cell viability (Calu-3 [6]; 1000 nM) [%] | cell viability (Calu-3 [6]; 10000 nM) [%] | cell viability (HepG2 [7]; 1 nM) [%] | cell viability (HepG2 [7]; 10 nM) [%] | cell viability (HepG2 [7]; 100 nM) [%] | cell viability (HepG2 [7]; 1000 nM) [%] | cell viability (HepG2 [7]; 10000 nM) [%] | cell viability (U2OS [8]; 1 nM) [%] | cell viability (U2OS [8]; 10 nM) [%] | cell viability (U2OS [8]; 100 nM) [%] | cell viability (U2OS [8]; 1000 nM) [%] | cell viability (U2OS [8]; 10000 nM) [%] | cell viability (Caco-2 [9]; 1 nM) [%] | cell viability (Caco-2 [9]; 10 nM) [%] | cell viability (Caco-2 [9]; 100 nM) [%] | cell viability (Caco-2 [9]; 1000 nM) [%] | cell viability (Caco-2 [9]; 10000 nM) [%] | cell viability (Vero E6 [10]; 1 nM) [%] | cell viability (Vero E6 [10]; 10 nM) [%] | cell viability (Vero E6 [10]; 100 nM) [%] | cell viability (Vero E6 [10]; 1000 nM) [%] | cell viability (Vero E6 [10]; 10000 nM) [%] | drug sensitivity score (Calu-3 [11]) | drug sensitivity score (HepG2 [12]) | drug sensitivity score (U2OS [13]) | drug sensitivity score (Caco-2 [14]) | drug sensitivity score (Vero E6 [15])
1 | CC(C)(C(=O)O)c1ccc(C(=O)CCCN2CCC(OC(c3ccccc3)c3ccccc3)CC2)cc1 [carebastine] | > 10 | > 10 | > 10 | > 10 | > 10 | 89.7 | 88.6 | 110 | 100 | 102 | 107 | 97.7 | 94.3 | 108 | 92.9 | 95.7 | 99.2 | 99.4 | 93.2 | 99.3 | 101 | 101 | 107 | 92.2 | 96.6 | 111 | 106 | 95.3 | 104 | 106 | 0 | 0 | 0 | 0 | 0
2 | CN(C)C(=O)N[C@H]1CC[C@H](CCN2CCN(c3cccc(Cl)c3Cl)CC2)CC1 [cariprazine] | > 10 | > 10 | > 10 | > 10 | > 10 | 102 | 93 | 100 | 97.9 | 106 | 93 | 91.1 | 93.8 | 100 | 94.7 | 100 | 102 | 98 | 95.9 | 100 | 95.7 | 95.2 | 96.5 | 86.6 | 97.2 | 97.3 | 98.6 | 96.8 | 104 | 95.3 | 0 | 0 | 0 | 0 | 0
3 | CC1=C(C(=O)O)N2C(=O)[C@@H](NC(=O)[C@H](N)C3=CCC=CC3)[C@H]2SC1 [cephradine] | > 10 | > 10 | > 10 | > 10 | > 10 | 92.7 ± 0.85 | 98.1 ± 5.7 | 98.3 ± 2 | 106 ± 9.1 | 89.2 ± 6 | 99.9 ± 3.4 | 94.2 ± 3.5 | 98 ± 7.6 | 102 ± 10 | 108 ± 3.1 | 96.4 ± 0.99 | 99.7 ± 2.4 | 100 ± 3.5 | 103.8 ± 0.78 | 101.7 ± 0.78 | 96.75 ± 0.92 | 100 ± 9.7 | 94.8 ± 0.85 | 98 ± 3.8 | 103 ± 14 | 95.2 ± 3 | 97 ± 3.8 | 94.5 ± 3 | 98.4 ± 4.1 | 99.2 ± 1.1 | 0.15 ± 0.21 | 0 | 0 | 0 | 0
4 | CCCCCCCCCCCCCCCC[N+](C)(C)C [cetrimonium] | 1.44 | 2.43 | 1.83 | 1.9 | 1.91 | 97.7 | 97.8 | 109 | 83.6 | 43.1 | 97.9 | 93.2 | 96.5 | 93.6 | 28 | 99 | 95 | 97.5 | 84.6 | 14.3 | 92.7 | 95.9 | 96.3 | 86.6 | 18.5 | 96.5 | 93.5 | 97.7 | 87.5 | 23.8 | 5.5 | 5 | 7.3 | 6.8 | 6.3
5 | C[N+](C)(C)CC[N+]1(C)Cc2c(Cl)c(Cl)c(Cl)c(Cl)c2C1 [chlorisondamine-diiodide] | > 10 | > 10 | > 10 | > 10 | > 10 | 93.2 | 102 | 102 | 89.8 | 100 | 94 | 110 | 103 | 99.9 | 101 | 97.2 | 96.2 | 96.1 | 97.5 | 92.5 | 92.1 | 93 | 99.9 | 103 | 88.8 | 100 | 95.5 | 95.7 | 97.4 | 94 | 0 | 0 | 0 | 0 | 0
6 | Cc1cc(O)ccc1Cl [chlorocresol] | > 10 | > 10 | > 10 | > 10 | > 10 | 99.8 | 92.3 | 96.3 | 105 | 101 | 100 | 100 | 99 | 103 | 102 | 105 | 99.6 | 103 | 97.8 | 100 | 109 | 104 | 100 | 97.4 | 95.1 | 96.2 | 103 | 100 | 111 | 99.4 | 0 | 0 | 0 | 0 | 0
7 | O=C(O)/C=C\c1c[nH]cn1 [cis-Urocanic acid] | > 10 | > 10 | > 10 | > 10 | > 10 | 107 ± 4.3 | 108 ± 11 | 100 ± 4.8 | 98 ± 8.6 | 96.6 ± 3 | 97.1 | 95.9 | 88.1 | 102 | 95.2 | 99.2 ± 3 | 97.5 ± 2.8 | 97.7 ± 1.1 | 97.4 ± 4 | 100 ± 1.8 | 93.8 ± 14 | 96.7 ± 3.2 | 92.3 ± 7.2 | 91.5 ± 8.9 | 98.1 ± 5.9 | 99.5 ± 3.1 | 99.8 | 100 ± 4.2 | 100.8 ± 0.64 | 99 ± 1.8 | 0 | 0 | 0 | 1.25 ± 1.8 | 0
8 | N=C(NCc1ccc(Cl)cc1)SCCCc1c[nH]cn1 [clobenpropit] | > 10 | > 10 | > 10 | > 10 | > 10 | 108 | 100 | 103 | 101 | 82.4 | 94.2 | 106 | 105 | 102 | 84 | 110 | 104 | 99.5 | 98.3 | 99.6 | 97.5 | 96.2 | 101 | 93.5 | 104 | 101 | 100 | 97.4 | 93.3 | 97.5 | 0.3 | 0.2 | 0 | 0 | 0
9 | CC(=O)c1c(O)cc(C)oc1=O [dehydroacetic-acid] | > 10 | > 10 | > 10 | > 10 | > 10 | 105 | 107 | 98.2 | 101 | 101 | 100 | 103 | 99.9 | 96.7 | 103 | 99.2 | 101 | 96.2 | 103 | 100 | 101 | 107 | 91.9 | 104 | 94.9 | 98 | 93.6 | 92.5 | 101 | 95.4 | 0 | 0 | 0 | 0 | 0
10 | CNCC(O)c1ccc(OC(=O)C(C)(C)C)c(OC(=O)C(C)(C)C)c1 (stereo not given) [dipivefrine] | > 10 | > 10 | > 10 | > 10 | > 10 | 97.9 | 102 | 106 | 96.3 | 109 | 97.5 | 94.1 | 98.2 | 97.7 | 84.3 | 99.4 | 95.1 | 97.3 | 96.2 | 97.1 | 104 | 94 | 102 | 90.4 | 85 | 100 | 100 | 93.3 | 98.3 | 97.4 | 0 | 0.5 | 0 | 0.9 | 0
11 | CN(CCOc1ccc(NS(C)(=O)=O)cc1)CCc1ccc(NS(C)(=O)=O)cc1 [dofetilide] | > 10 | > 10 | > 10 | > 10 | > 10 | 111 | 90.4 | 101 | 98.6 | 104 | 100 | 102 | 89.5 | 117 | 118 | 100 | 102 | 102 | 96.6 | 97 | 91.1 | 99.9 | 99.1 | 97.1 | 102 | 92.6 | 104 | 90.2 | 98.1 | 110 | 0 | 0 | 0 | 0 | 0
12 | NCCc1ccc(O)c(O)c1 [dopamine] | > 10 | > 10 | > 10 | > 10 | > 10 | 100 | 100 | 100 | 99.8 | 109 | 106 | 107 | 95.1 | 115 | 99.6 | 101 | 96.6 | 101 | 100 | 100 | 106 | 97.7 | 92.5 | 91.1 | 89.9 | 103 | 106 | 102 | 97 | 99.4 | 0 | 0 | 0 | 0 | 0
